Laboratory results from PubChem BioAssay (NCI).
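The concentration for 50% growth inhibition is given as GI50. TGI: concentration producing complete growth inhibition.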

What was measured:
Test in all cases: DTP human tumour cell line panel, 384-well format
CAKI-1 renal = test system: CAKI-1 renal
HCT-15 colon = test system: HCT-15 colon
M14 melanoma = test system: M14 melanoma
IGROV1 ovarian = test system: IGROV1 ovarian
OVCAR-3 ovarian = test system: OVCAR-3 ovarian
MDA-MB-231 breast = test system: MDA-MB-231 breast
SR leukemia = test system: SR leukemia
TK-10 renal = test system: TK-10 renal
A549 NSCLC = test system: A549 NSCLC
UACC-62 melanoma = test system: UACC-62 melanoma
HCT-116 colon = test system: HCT-116 colon
RXF 393 renal = test system: RXF 393 renal
MOLT-4 leukemia = test system: MOLT-4 leukemia
786-0 renal = test system: 786-0 renal
RPMI-8226 leukemia = test system: RPMI-8226 leukemia
UO-31 renal = test system: UO-31 renal
NCI-H522 lung = test system: NCI-H522 lung
HOP-92 NSCLC = test system: HOP-92 NSCLC
SK-MEL-28 melanoma = test system: SK-MEL-28 melanoma
EKVX NSCLC = test system: EKVX NSCLC
HL-60(TB) leukemia = test system: HL-60(TB) leukemia
SN12C renal = test system: SN12C renal
HS 578T breast = test system: HS 578T breast
T-47D breast = test system: T-47D breast
SF-539 CNS = test system: SF-539 CNS
SK-MEL-5 melanoma = test system: SK-MEL-5 melanoma
ACHN renal = test system: ACHN renal
OVCAR-5 ovarian = test system: OVCAR-5 ovarian
HCC-2998 colon = test system: HCC-2998 colon
UACC-257 melanoma = test system: UACC-257 melanoma
COLO 205 colon = test system: COLO 205 colon
NCI-H322M lung = test system: NCI-H322M lung
HT29 colon = test system: HT29 colon
BT-549 breast = test system: BT-549 breast
LOX IMVI melanoma = test system: LOX IMVI melanoma
MCF7 breast = test system: MCF7 breast
SF-295 CNS = test system: SF-295 CNS
SF-268 CNS = test system: SF-268 CNS
A498 renal = test system: A498 renal
HOP-62 NSCLC = test system: HOP-62 NSCLC
KM12 colon = test system: KM12 colon
MALME-3M melanoma = test system: MALME-3M melanoma
DU-145 prostate = test system: DU-145 prostate
MDA-MB-468 breast = test system: MDA-MB-468 breast
K-562 leukemia = test system: K-562 leukemia
PC-3 prostate = test system: PC-3 prostate
MDA-MB-435 melanoma = test system: MDA-MB-435 melanoma
NCI/ADR-RES ovarian = test system: NCI/ADR-RES ovarian
NCI-H23 lung = test system: NCI-H23 lung
SW-620 colon = test system: SW-620 colon
NCI-H460 NSCLC = test system: NCI-H460 NSCLC
OVCAR-8 ovarian = test system: OVCAR-8 ovarian
U251 glioblastoma = test system: U251 glioblastoma
SK-OV-3 ovarian = test system: SK-OV-3 ovarian
SNB-75 CNS = test system: SNB-75 CNS
CCRF-CEM leukemia = test system: CCRF-CEM leukemia
SNB-19 CNS = test system: SNB-19 CNS
OVCAR-4 ovarian = test system: OVCAR-4 ovarian
NCI-H226 lung = test system: NCI-H226 lung

Structure (SMILES): CCOc1cc2ncc(C#N)c(Nc3ccc(OCc4ccccn4)c(Cl)c3)c2cc1NC(=O)/C=C/CN(C)C
- GI50 (CAKI-1 renal): 98.7 nM
- TGI (CAKI-1 renal): 759 nM
- GI50 (HCT-15 colon): 349 nM
- TGI (HCT-15 colon): 1500 nM
- GI50 (M14 melanoma): 276 nM
- TGI (M14 melanoma): 1180 nM
- GI50 (IGROV1 ovarian): 25.9 nM
- TGI (IGROV1 ovarian): 320 nM
- GI50 (OVCAR-3 ovarian): 148 nM
- TGI (OVCAR-3 ovarian): > 100000 nM
- GI50 (MDA-MB-231 breast): 754 nM
- TGI (MDA-MB-231 breast): 2000 nM
- GI50 (SR leukemia): 530 nM
- TGI (SR leukemia): 876 nM
- GI50 (TK-10 renal): 71 nM
- TGI (TK-10 renal): > 100000 nM
- GI50 (A549 NSCLC): 312 nM
- TGI (A549 NSCLC): 1740 nM
- GI50 (UACC-62 melanoma): 405 nM
- TGI (UACC-62 melanoma): > 100000 nM
- GI50 (HCT-116 colon): 473 nM
- TGI (HCT-116 colon): 1670 nM
- GI50 (RXF 393 renal): 143 nM
- TGI (RXF 393 renal): 598 nM
- GI50 (MOLT-4 leukemia): 207 nM
- TGI (MOLT-4 leukemia): 511 nM
- GI50 ([…]-0 renal): 251 nM
- TGI (786-0 renal): 1230 nM
- GI50 (RPMI-8226 leukemia): 242 nM
- TGI (RPMI-8226 leukemia): 515 nM
- GI50 (UO-31 renal): 267 nM
- TGI (UO-31 renal): > 100000 nM
- GI50 (NCI-H522 lung): < 10 nM
- TGI (NCI-H522 lung): 63.3 nM
- GI50 (HOP-92 NSCLC): 351 nM
- TGI (HOP-92 NSCLC): 1620 nM
- GI50 (SK-MEL-28 melanoma): > 100000 nM
- TGI (SK-MEL-28 melanoma): > 100000 nM
- GI50 (EKVX NSCLC): 41.8 nM
- TGI (EKVX NSCLC): 1240 nM
- GI50 (HL-60(TB) leukemia): 197 nM
- TGI (HL-60(TB) leukemia): 639 nM
- GI50 (SN12C renal): 140 nM
- TGI (SN12C renal): > 100000 nM
- GI50 (HS 578T breast): 220 nM
- TGI (HS 578T breast): 848 nM
- GI50 (T-47D breast): < 10 nM
- TGI (T-47D breast): > 100000 nM
- GI50 (SF-539 CNS): 2170 nM
- TGI (SF-539 CNS): > 100000 nM
- GI50 (SK-MEL-5 melanoma): 183 nM
- TGI (SK-MEL-5 melanoma): 474 nM
- GI50 (ACHN renal): 61.1 nM
- TGI (ACHN renal): 1220 nM
- GI50 (OVCAR-5 ovarian): 864 nM
- TGI (OVCAR-5 ovarian): > 100000 nM
- GI50 (HCC-2998 colon): 1260 nM
- TGI (HCC-2998 colon): 2520 nM
- GI50 (UACC-257 melanoma): 2150 nM
- TGI (UACC-257 melanoma): > 100000 nM
- GI50 (COLO 205 colon): 3670 nM
- TGI (COLO 205 colon): > 100000 nM
- GI50 (NCI-H322M lung): 14.9 nM
- TGI (NCI-H322M lung): 53 nM
- GI50 (HT29 colon): 1230 nM
- TGI (HT29 colon): 2490 nM
- GI50 (BT-549 breast): 396 nM
- TGI (BT-549 breast): 1520 nM
- GI50 (LOX IMVI melanoma): 969 nM
- TGI (LOX IMVI melanoma): 2150 nM
- GI50 (MCF7 breast): 881 nM
- TGI (MCF7 breast): 2100 nM
- GI50 (SF-295 CNS): > 100000 nM
- TGI (SF-295 CNS): > 100000 nM
- GI50 (SF-268 CNS): 311 nM
- TGI (SF-268 CNS): > 100000 nM
- GI50 (A498 renal): 89.6 nM
- TGI (A498 renal): 1220 nM
- GI50 (HOP-62 NSCLC): 1130 nM
- TGI (HOP-62 NSCLC): 2350 nM
- GI50 (KM12 colon): 1200 nM
- TGI (KM12 colon): 2450 nM
- GI50 (MALME-3M melanoma): 188 nM
- TGI (MALME-3M melanoma): 808 nM
- GI50 (DU-145 prostate): 143 nM
- TGI (DU-145 prostate): 1420 nM
- GI50 (MDA-MB-468 breast): < 10 nM
- TGI (MDA-MB-468 breast): 29 nM

Structure (SMILES): COc1cc(C(=O)NC2CCN(C)CC2)c(F)cc1Nc1ncc2c(n1)N(C1CCCC1)CC(F)(F)C(=O)N2C
- GI50 (CAKI-1 renal): 93.2 nM
- TGI (CAKI-1 renal): 10500 nM
- GI50 (HCT-15 colon): 21.4 nM
- TGI (HCT-15 colon): 160 nM
- GI50 (K-562 leukemia): < 10 nM
- TGI (K-562 leukemia): 53.7 nM
- GI50 (PC-3 prostate): 33.4 nM
- TGI (PC-3 prostate): 13100 nM
- GI50 (IGROV1 ovarian): 29.8 nM
- TGI (IGROV1 ovarian): 2820 nM
- GI50 (MDA-MB-435 melanoma): < 10 nM
- TGI (MDA-MB-435 melanoma): 10.8 nM
- GI50 (NCI/ADR-RES ovarian): 50.9 nM
- TGI (NCI/ADR-RES ovarian): 206 nM
- GI50 (OVCAR-3 ovarian): < 10 nM
- TGI (OVCAR-3 ovarian): 14.1 nM
- GI50 (NCI-H23 lung): < 10 nM
- TGI (NCI-H23 lung): 16.7 nM
- GI50 (TK-10 renal): 1380 nM
- TGI (TK-10 renal): 5990 nM
- GI50 (A549 NSCLC): < 10 nM
- TGI (A549 NSCLC): 410 nM
- GI50 (SW-620 colon): < 10 nM
- TGI (SW-620 colon): 28.4 nM
- GI50 (HCT-116 colon): < 10 nM
- TGI (HCT-116 colon): 1340 nM
- GI50 (RXF 393 renal): < 10 nM
- TGI (RXF 393 renal): 27.4 nM
- GI50 (MOLT-4 leukemia): < 10 nM
- TGI (MOLT-4 leukemia): < 10 nM
- GI50 ([…]-0 renal): 30.8 nM
- TGI (786-0 renal): 1430 nM
- GI50 (RPMI-8226 leukemia): 16.3 nM
- TGI (RPMI-8226 leukemia): 31.5 nM
- GI50 (NCI-H460 NSCLC): < 10 nM
- TGI (NCI-H460 NSCLC): 14.7 nM
- GI50 (UO-31 renal): 52.1 nM
- TGI (UO-31 renal): 2030 nM
- GI50 (NCI-H522 lung): < 10 nM
- TGI (NCI-H522 lung): < 10 nM
- GI50 (HOP-92 NSCLC): 41.3 nM
- TGI (HOP-92 NSCLC): 1400 nM
- GI50 (EKVX NSCLC): 91.7 nM
- TGI (EKVX NSCLC): 6980 nM
- GI50 (HL-60(TB) leukemia): < 10 nM
- TGI (HL-60(TB) leukemia): < 10 nM
- GI50 (OVCAR-8 ovarian): 10.4 nM
- TGI (OVCAR-8 ovarian): 26.8 nM
- GI50 (SN12C renal): 246 nM
- TGI (SN12C renal): 3440 nM
- GI50 (HS 578T breast): 13.5 nM
- TGI (HS 578T breast): 42.1 nM
- GI50 (T-47D breast): 26.1 nM
- TGI (T-47D breast): 1270 nM
- GI50 (SF-539 CNS): 20.5 nM
- TGI (SF-539 CNS): 1060 nM
- GI50 (SK-MEL-5 melanoma): < 10 nM
- TGI (SK-MEL-5 melanoma): 42.8 nM
- GI50 (ACHN renal): 83.1 nM
- TGI (ACHN renal): 11300 nM
- GI50 (OVCAR-5 ovarian): 14 nM
- TGI (OVCAR-5 ovarian): 1730 nM
- GI50 (HCC-2998 colon): 13.5 nM
- TGI (HCC-2998 colon): 51.5 nM
- GI50 (U251 glioblastoma): < 10 nM
- TGI (U251 glioblastoma): 2360 nM
- GI50 (SK-OV-3 ovarian): 16.7 nM
- TGI (SK-OV-3 ovarian): 1160 nM
- GI50 (HT29 colon): < 10 nM
- TGI (HT29 colon): 19.3 nM
- GI50 (SNB-75 CNS): 47.2 nM
- TGI (SNB-75 CNS): 3280 nM
- GI50 (BT-549 breast): 30.9 nM
- TGI (BT-549 breast): 242 nM
- GI50 (LOX IMVI melanoma): 16.7 nM
- TGI (LOX IMVI melanoma): 1150 nM
- GI50 (MCF7 breast): < 10 nM
- TGI (MCF7 breast): 1510 nM
- GI50 (CCRF-CEM leukemia): < 10 nM
- TGI (CCRF-CEM leukemia): < 10 nM
- GI50 (SNB-19 CNS): 17.5 nM
- TGI (SNB-19 CNS): 5750 nM
- GI50 (OVCAR-4 ovarian): 1630 nM
- TGI (OVCAR-4 ovarian): 5880 nM
- GI50 (SF-295 CNS): 30.8 nM
- TGI (SF-295 CNS): 272 nM
- GI50 (NCI-H226 lung): 1330 nM
- TGI (NCI-H226 lung): 6330 nM
- GI50 (SF-268 CNS): < 10 nM
- TGI (SF-268 CNS): < 10 nM
- GI50 (A498 renal): 99.5 nM
- TGI (A498 renal): 10700 nM
- GI50 (HOP-62 NSCLC): < 10 nM
- TGI (HOP-62 NSCLC): 2900 nM
- GI50 (MALME-3M melanoma): 26.5 nM
- TGI (MALME-3M melanoma): 1530 nM
- GI50 (MDA-MB-468 breast): < 10 nM
- TGI (MDA-MB-468 breast): < 10 nM
